{"source": "patent US12369578B2", "about": "“Use of a nematicide composition” (DESARROLLO AGRICOLA Y MINERO, S.A., priority 2019, dated 2025)", "key": {"M. incognita [1]": {"tested_on": "M. incognita", "assay": "Egg hatching, laboratory test in sterile water", "assay_type": "in vivo", "settings": "M. incognita eggs; 0.025%, 0.05%, 0.1%; counts about every 72 h for 3-4 weeks", "description": "(§1) The aim of the protocol was to evaluate the nematicidal efficacy of the formulation and of the active ingredients, cinnamic aldehyde and terpene alcohol, separately. For this trial M. incognita and M. javanica nematodes were used.\n(§2) • 1. Untreated control specimen: Eggs or juvenile nematodes in sterile water. • 2. Eggs or juveniles with 0.025% of the formulation in sterile water. • 3. Eggs or juveniles with 0.05% of the formulation in sterile water. • 4. Eggs or juveniles with 0.1% of the formulation in sterile water. • 5. Eggs or juveniles with 0.025% of terpene alcohol in sterile water plus innocuous solvent. • 6. Eggs or juveniles with 0.05% of terpene alcohol in sterile water plus innocuous solvent. • 7. Eggs or juveniles with 0.1% of terpene alcohol in sterile water plus innocuous solvent. • 8. Eggs or juveniles with 0.025% of cinnamic aldehyde in sterile water plus innocuous solvent. • 9. Eggs or juveniles with 0.05% of cinnamic aldehyde in sterile water plus innocuous solvent. • 10. Eggs or juveniles with 0.1% of cinnamic aldehyde in sterile water plus innocuous solvent. Results:\n(§3) The treatments with juveniles hatched at 0 h, 24 h, 48 h and 72 h. The number of hatched eggs was determined approximately every 72 h for 3-4 weeks. […]"}, "M. incognita [2]": {"tested_on": "M. incognita", "assay": "Juvenile (J2) mortality, laboratory test in sterile water", "assay_type": "in vivo", "settings": "all concentrations (0.025%, 0.05%, 0.1%), in less than 24 h", "description": "as §1, §2, §3"}}, "data": [{"smiles": "O=C/C=C/c1ccccc1", "note": "[cinnamic aldehyde, (2E)-3-phenylprop-2-enal]", "values": [{"measurement": "egg hatching", "setting": "M. incognita [1]", "result": "inhibited the hatching of juveniles"}, {"measurement": "mortality of J2", "setting": "M. incognita [2]", "result": 100, "unit": "%"}]}]}
